# Source: patent publication US20220162191A1, “SMALL MOLECULE MODULATORS OF IL-17” (LEO PHARMA A/S, priority 2019, published 2022)
# Target: T1, human IL-17AA (Homo sapiens, UniProt Q16552)
# T1 construct: host or cells: HEK (human embryonic kidney) cells
# T1 sequence (Q16552 24-155) 1: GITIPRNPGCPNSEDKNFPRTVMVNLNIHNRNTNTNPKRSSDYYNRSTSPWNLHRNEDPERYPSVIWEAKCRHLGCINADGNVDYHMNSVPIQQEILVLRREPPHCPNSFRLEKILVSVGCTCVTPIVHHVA
# T1 sequence (Q16552 24-155) 2: T1 sequence (Q16552 24-155) 1
# Test: IL-8 release assay in human epithelial keratinocytes adult (HEKa)
# Assay type: cell-based
# Details: 3 ng/ml human IL-17AA + 10 ng/ml human TNFalpha, 68-72 h, IL-8 by HTRF, read-out: Rel EC50 L-8 release assay
# Outline: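 Adult human keratinocytes in Epilife with HKGS minus hydrocortisone, treated with compound then stimulated with final 3 ng/ml HEK-derived human IL-17AA plus 10 ng/ml TNF-alpha for 68–72 h at 37 °C; TNF-alpha alone defines 100% inhibition. Secreted IL-8 by HTRF; relative IC50 and Emax from four-parameter fits.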
row,Structure (SMILES),EC50
1,"CC(C)n1cc(-c2ccc3c(c2)[C@@H]([C@@H](NC(=O)c2ccnn2C)C(=O)Nc2ccc(-c4cncn4C)cc2)CCC3)ccc1=O [Example 48, N-[(1R)-1-[(1S)-7-(1-isopropyl-6-oxo-3-pyridyl)tetralin-1-yl]-2-[4-(3-methylimidazol-4-yl)anilino]-2-oxo-ethyl]-2-methyl-pyrazole-3-carboxamide]",> 1000 nM
2,"Cc1ncn(C)c1-c1ccc(NC(=O)[C@@H](NC(=O)C2(F)CC2)C(C)c2cc(-c3ccc(=O)n(C(C)C)c3)ccc2Cl)cc1 (stereo partly drawn) [Example 52, N-[(1S)-2-[2-chloro-5-(1-isopropyl-6-oxo-3-pyridyl)phenyl]-1-[[4-(3,5-dimethylimidazol-4-yl)phenyl]carbamoyl]propyl]-1-fluoro-cyclopropanecarboxamide]",> 1000 nM
3,"CC(c1cc(-c2ccc(=O)n(C(C)C)c2)ccc1Cl)C(NC(=O)c1ccnn1C)C(=O)Nc1ccc(-c2cncn2C)cc1 (stereo not drawn) [Example 55, N-[2-[2-chloro-5-(1-isopropyl-6-oxo-3-pyridyl)phenyl]-1-[[4-(3-methylimidazol-4-yl)phenyl]carbamoyl]propyl]-2-methyl-pyrazole-3-carboxamide]",> 1000 nM
4,"CC(c1cccc(-c2ccc(=O)n(C(C)C)c2)c1)[C@H](NC(=O)c1ccnn1C)C(=O)Nc1ccc(-c2cncn2C)cc1 (stereo partly drawn) [Example 56, N-[(1S)-2-[3-(1-isopropyl-6-oxo-3-pyridyl)phenyl]-1-[[4-(3-methylimidazol-4-yl)phenyl]carbamoyl]propyl]-2-methyl-pyrazole-3-carboxamide]",> 1000 nM
5,"CC(C)n1cc(-c2ccc(Cl)c(CC(NC(=O)c3ccnn3C)C(=O)Nc3ccc(-c4nncn4C)cc3)c2)ccc1=O (stereo not drawn) [Example 62, N-[1-[[2-chloro-5-(1-isopropyl-6-oxo-3-pyridyl)phenyl]methyl]-2-[4-(4-methyl-1,2,4-triazol-3-yl)anilino]-2-oxo-ethyl]-2-methyl-pyrazole-3-carboxamide]",> 1000 nM
6,"Cc1nocc1C(=O)NC(Cc1cc(-c2ccc(=O)n(C3CC3)c2)ccc1Cl)C(=O)Nc1ccc(-c2nncn2C)cc1 (stereo not drawn) [Example 63, N-[1-[[2-chloro-5-(1-cyclopropyl-6-oxo-3-pyridyl)phenyl]methyl]-2-[4-(4-methyl-1,2,4-triazol-3-yl)anilino]-2-oxo-ethyl]-3-methyl-isoxazole-4-carboxamide]",> 1000 nM
7,"Cn1cnnc1-c1ccc(NC(=O)C(Cc2cc(-c3ccnc(CC(C)(C)O)c3)ccc2Cl)NC(=O)c2ccnn2C)cc1 (stereo not drawn) [Example 64, N-[1-[[2-chloro-5-[2-(2-hydroxy-2-methyl-propyl)-4-pyridyl]phenyl]methyl]-2-[4-(4-methyl-1,2,4-triazol-3-yl)anilino]-2-oxo-ethyl]-2-methyl-pyrazole-3-carboxamide]",> 1000 nM
8,"CC(C)n1cc(-c2ccc(Cl)c(CC(NC(=O)c3ccnn3C)C(=O)Nc3ccc(-c4cnnn4C)cc3)c2)ccc1=O (stereo not drawn) [Example 65, N-[1-[[2-chloro-5-(1-isopropyl-6-oxo-3-pyridyl)phenyl]methyl]-2-[4-(3-methyltriazol-4-yl)anilino]-2-oxo-ethyl]-2-methyl-pyrazole-3-carboxamide]",> 1000 nM
9,"CC(C)n1cc(-c2ccc(Cl)c(CC(NC(=O)c3ccnn3C)C(=O)Nc3ccc(-c4nn[nH]n4)cc3)c2)ccc1=O (stereo not drawn) [Example 66, N-[1-[[2-chloro-5-(1-isopropyl-6-oxo-3-pyridyl)phenyl]methyl]-2-oxo-2-[4-(2H-tetrazol-5-yl)anilino]ethyl]-2-methyl-pyrazole-3-carboxamide]",> 1000 nM
10,"Cc1nccn1-c1ccc(NC(=O)C(Cc2cc(-c3ccc(=O)n(C(C)C)c3)ccc2Cl)NC(=O)c2ccnn2C)cc1 (stereo not drawn) [Example 68, N-[1-[[2-chloro-5-(1-isopropyl-6-oxo-3-pyridyl)phenyl]methyl]-2-[4-(2-methylimidazol-1-yl)anilino]-2-oxo-ethyl]-2-methyl-pyrazole-3-carboxamide]",> 1000 nM
11,"CC(C)n1cc(-c2ccc(Cl)c(CC(NC(=O)c3ccnn3C)C(=O)Nc3ccc(-c4nncn4C)c(O)c3)c2)ccc1=O (stereo not drawn) [Example 69, N-[1-[[2-chloro-5-(1-isopropyl-6-oxo-3-pyridyl)phenyl]methyl]-2-[3-hydroxy-4-(4-methyl-1,2,4-triazol-3-yl)anilino]-2-oxo-ethyl]-2-methyl-pyrazole-3-carboxamide]",100 to 1000 nM

# Results, then the compound that gave them:
row,EC50,Structure (SMILES)
1,100 to 1000 nM,"CC(C)n1cc(-c2ccc3c(c2)[C@H]([C@H](NC(=O)c2ccnn2C)C(=O)Nc2ccc(-c4cncn4C)cc2)CCC3)ccc1=O [Example 44, N-[(1S)-1-[(1R)-7-(1-isopropyl-6-oxo-3-pyridyl)tetralin-1-yl]-2-[4-(3-methylimidazol-4-yl)anilino]-2-oxo-ethyl]-2-methyl-pyrazole-3-carboxamide]"
2,100 to 1000 nM,"CC(C)n1cc(-c2ccc3c(c2)[C@@H]([C@@H](NC(=O)OC(C)(C)C)C(=O)Nc2ccc(-c4cncn4C)cc2)CCC3)ccc1=O [Example 45, tert-butyl N-[(1R)-1-[(1S)-7-(1-isopropyl-6-oxo-3-pyridyl)tetralin-1-yl]-2-[4-(3-methylimidazol-4-yl)anilino]-2-oxo-ethyl]carbamate]"
3,< 100 nM,"Cc1n[nH]c(C)c1-c1ccc(NC(=O)[C@@H](NC(=O)c2ccnn2C)[C@@H]2CCCc3ccc(-c4ccc(=O)n(C(C)C)c4)cc32)cc1O [Example 46, N-[(1S)-2-[4-(3,5-dimethyl-1H-pyrazol-4-yl)-3-hydroxy-anilino]-1-[(1R)-7-(1-isopropyl-6-oxo-3-pyridyl)tetralin-1-yl]-2-oxo-ethyl]-2-methyl-pyrazole-3-carboxamide]"
4,< 100 nM,"Cc1n[nH]c(C)c1-c1ccc(NC(=O)[C@@H](NC(=O)C2(F)CC2)[C@@H]2CCCc3ccc(-c4ccc(=O)n(C(C)C)c4)cc32)cc1O [Example 47, N-[(1S)-2-[4-(3,5-dimethyl-1H-pyrazol-4-yl)-3-hydroxy-anilino]-1-[(1R)-7-(1-isopropyl-6-oxo-3-pyridyl)tetralin-1-yl]-2-oxo-ethyl]-1-fluoro-cyclopropanecarboxamide]"
5,< 100 nM,"CC(C)n1cc(-c2ccc3c(c2)[C@H]([C@H](NC(=O)c2ccnn2C)C(=O)Nc2ccc(-c4cncn4C)c(O)c2)CCC3)ccc1=O [Example 49, N-[(1S)-2-[3-hydroxy-4-(3-methylimidazol-4-yl)anilino]-1-[(1R)-7-(1-isopropyl-6-oxo-3-pyridyl)tetralin-1-yl]-2-oxo-ethyl]-2-methyl-pyrazole-3-carboxamide]"
6,100 to 1000 nM,"Cc1ncn(C)c1-c1ccc(NC(=O)[C@@H](NC(=O)c2ccnn2C)[C@@H]2CCCc3ccc(-c4cccc(C(C)(C)N)c4)cc32)cc1 [Example 50, N-[(1S)-1-[(1R)-7-[3-(1-amino-1-methyl-ethyl)phenyl]tetralin-1-yl]-2-[4-(3,5-dimethylimidazol-4-yl)anilino]-2-oxo-ethyl]-2-methyl-pyrazole-3-carboxamide]"
7,100 to 1000 nM,"Cc1n[nH]c(C)c1-c1ccc(NC(=O)[C@@H](NC(=O)C2(F)CC2)C(C)c2cc(-c3ccc(=O)n(C(C)C)c3)ccc2Cl)cc1 (stereo partly drawn) [Example 51, N-[(1S)-2-[2-chloro-5-(1-isopropyl-6-oxo-3-pyridyl)phenyl]-1-[[4-(3,5-dimethyl-1H-pyrazol-4-yl)phenyl]carbamoyl]propyl]-1-fluoro-cyclopropanecarboxamide]"
8,100 to 1000 nM,"CC(c1cc(-c2ccc(=O)n(C(C)C)c2)ccc1Cl)[C@H](NC(=O)OC1CC1)C(=O)Nc1ccc(-c2cncn2C)cc1 (stereo partly drawn) [Example 53, cyclopropyl N-[(1S)-2-[2-chloro-5-(1-isopropyl-6-oxo-3-pyridyl)phenyl]-1-[[4-(3-methylimidazol-4-yl)phenyl]carbamoyl]propyl] carbamate]"
9,< 100 nM,"Cc1n[nH]c(C)c1-c1ccc(NC(=O)[C@H](Cc2cc(-c3cccc(C(C)(C)O)c3)ccc2Cl)NC(=O)c2ccnn2C)cc1 [Example 58, N-[(1S)-1-[[2-chloro-5-[3-(1-hydroxy-1-methyl-ethyl)phenyl]phenyl]methyl]-2-[4-(3,5-dimethyl-1H-pyrazol-4-yl)anilino]-2-oxo-ethyl]-2-methyl-pyrazole-3-carboxamide]"
10,< 100 nM,"Cc1n[nH]c(C)c1-c1ccc(NC(=O)[C@H](Cc2cc(-c3cccc(C(C)(C)N)c3)ccc2Cl)NC(=O)c2ccnn2C)cc1 [Example 59, N-[(1S)-1-[[5-[3-(1-amino-1-methyl-ethyl)phenyl]-2-chloro-phenyl]methyl]-2-[4-(3,5-dimethyl-1H-pyrazol-4-yl)anilino]-2-oxo-ethyl]-2-methyl-pyrazole-3-carboxamide]"
11,< 100 nM,"Cc1n[nH]c(C)c1-c1ccc(NC(=O)[C@H](Cc2cc(-c3cccc(CN(C)C)c3)ccc2Cl)NC(=O)c2ccnn2C)cc1 [Example 60, N-[(1S)-1-[[2-chloro-5-[3-[(dimethylamino)methyl]phenyl]phenyl]methyl]-2-[4-(3,5-dimethyl-1H-pyrazol-4-yl)anilino]-2-oxo-ethyl]-2-methyl-pyrazole-3-carboxamide]"
12,100 to 1000 nM,"Cc1n[nH]c(C)c1-c1ccc(NC(=O)[C@H](Cc2cc(-c3cccc(CN)c3)ccc2Cl)NC(=O)c2ccnn2C)cc1 [Example 61, N-[(1S)-1-[[5-[3-(aminomethyl)phenyl]-2-chloro-phenyl]methyl]-2-[4-(3,5-dimethyl-1H-pyrazol-4-yl)anilino]-2-oxo-ethyl]-2-methyl-pyrazole-3-carboxamide]"
13,100 to 1000 nM,"Cc1nccn1-c1ccc(NC(=O)C(Cc2cc(-c3ccc(=O)n(C(C)C)c3)ccc2Cl)NC(=O)OC(C)(C)C)cc1 (stereo not drawn) [Example 67, tert-butyl N-[1-[[2-chloro-5-(1-isopropyl-6-oxo-3-pyridyl)phenyl]methyl]-2-[4-(2-methylimidazol-1-yl)anilino]-2-oxo-ethyl]carbamate]"
